Results as given in EPA's ToxRefDB 2.

Tests used:
dog [1] = conditions: Subchronic oral toxicity in nonrodent, beagle, Feed, dose end: 3 month, group: systemic, systemic / in life observation / body weight / body weight gain + systemic / in life observation / food consumption / food consumption
rat [2] = conditions: Subchronic oral toxicity in rodents, wistar, Feed, dose end: 90 day, group: systemic
rabbit [3] = conditions: Prenatal developmental toxicity study, Russian (Chbb:HM, SPF), Oral, Gavage/Intubation, dose end: 19 GD
mouse [4] = conditions: Carcinogenicity, other, Oral, Feed, dose end: 18 month, group: systemic
rat [5] = conditions: Prenatal developmental toxicity study, wistar, Oral, [Not Specified], dose end: 20 GD
mouse [6] = conditions: Subchronic oral toxicity in rodents, other, Feed, dose end: 90 day, group: systemic
dog [7] = conditions: Chronic toxicity; beagle; Oral; Feed; dose end: 12 month; group: systemic; systemic / in life observation / body weight / body weight gain + systemic / in life observation / food consumption / food consumption + …
rat [8] = conditions: Combined chronic toxicity/carcinogenicity, other, Oral, Feed, dose end: 24 month, group: systemic
rat [9] = conditions: Subchronic oral toxicity in rodents, other, Feed, dose end: 90 day, group: systemic
rat [10] = conditions: Prenatal developmental toxicity study, other, Oral, Gavage/Intubation, dose end: 15 GD
rat [11] = conditions: Multigenerational reproductive toxicity study, other, Oral, Feed, dose end: 2 generation
rat [12] = conditions: Developmental neurotoxicity study, other, Oral, Gavage/Intubation, dose end: 140 PND, group: cannot be grouped
rabbit [13] = conditions: Prenatal developmental toxicity study, new zealand white, Oral, Gavage/Intubation, dose end: 19 GD
rat [14] = conditions: Prenatal developmental toxicity study, sprague dawley, Oral, Gavage/Intubation, dose end: 17 GD
[15] = systemic / clinical chemistry / calcium / calcium
[16] = systemic / in life observation / body weight / body weight + systemic / in life observation / body weight / body weight gain + systemic / …
[17] = group: developmental, developmental / developmental malformation / bone / full supernumerary
[18] = group: maternal, systemic / in life observation / body weight / body weight gain
[19] = systemic / pathology microscopic / pancreas / hyperplasia
[20] = systemic / pathology microscopic / pancreas / hyperplasia + systemic / in life observation / body weight / body weight + systemic / in life …
[21] = group: developmental, developmental / developmental malformation / bone / unossified
[22] = group: developmental, developmental / developmental malformation / bone / unossified + developmental / developmental malformation / bone / incomplete ossification…
[23] = group: maternal, systemic / in life observation / clinical signs / piloerection + systemic / in life observation / clinical signs / salivation + systemic / …
[24] = systemic / pathology microscopic / liver / necrosis
[25] = systemic / pathology microscopic / liver / necrosis + systemic / hematology / leukocyte (wbc) count differential / leukocyte (wbc) + …
[26] = systemic / pathology microscopic / liver / dilatation + systemic / clinical chemistry / urea nitrogen / urea + systemic / in life …
[27] = systemic / clinical chemistry / cholesterol / cholesterol + systemic / clinical chemistry / lipids / phospholipids
[28] = group: developmental, developmental / developmental malformation / bone / incomplete ossification + developmental / developmental malformation / bone / unossified…
[29] = group: maternal, systemic / in life observation / body weight / body weight + systemic / in life observation / body weight / body weight gain + systemic / in…
[30] = group: offspring, systemic / in life observation / body weight / offspring (pup) weight
[31] = group: parental, systemic / organ weight / kidney / relative to body weight
[32] = reproductive / offspring survival early / birth index / birth index + reproductive / reproductive performance / gestational length / …
[33] = systemic / in life observation / body weight / offspring (pup) weight + systemic / organ weight / thymus / relative to body weight
[34] = group: developmental, developmental / developmental malformation / heart / atrial septum defect
[35] = group: maternal, systemic / in life observation / body weight / body weight gain + systemic / in life observation / food consumption / food consumption
[36] = group: developmental, developmental / developmental malformation / bone / wavy + developmental / developmental malformation / kidney / [other] + developmental / …
[37] = group: maternal, reproductive / reproductive performance / resorptions / resorptions + systemic / in life observation / body weight / body weight gain + …

## Cc1cc(C2CC2)nc(Nc2ccccc2)n1 [Cyprodinil]
Dog [1]
  LEL: 560 mg/kg/day
  LOAEL: 560 mg/kg/day
  NEL: 210 mg/kg/day
  NOAEL: 210 mg/kg/day
Rat [2]; [15]
  LEL: 3.52 mg/kg/day
  NEL: < 3.52 mg/kg/day
Rat [2]; [16]
  LOAEL: 131 mg/kg/day
  NOAEL: 17.8 mg/kg/day
Rabbit [3]; [17]
  LEL: 400 mg/kg/day
  LOAEL: 400 mg/kg/day
  NEL: 150 mg/kg/day
  NOAEL: 150 mg/kg/day
Rabbit [3]; [18]
  LEL: 400 mg/kg/day
  LOAEL: 400 mg/kg/day
  NEL: 150 mg/kg/day
  NOAEL: 150 mg/kg/day
Mouse [4]; [19]
  LEL: 212 mg/kg/day
  LOAEL: 212 mg/kg/day
Mouse [4]; [20]
  NEL: 16.1 mg/kg/day
  NOAEL: 16.1 mg/kg/day
Rat [5]; [21]
  LEL: 200 mg/kg/day
  LOAEL: 200 mg/kg/day
Rat [5]; [22]
  NEL: 20 mg/kg/day
  NOAEL: 20 mg/kg/day
Rat [5]; [23]
  LEL: 200 mg/kg/day
  LOAEL: 200 mg/kg/day
  NEL: 20 mg/kg/day
  NOAEL: 20 mg/kg/day
Mouse [6]; [24]
  LEL: 257 mg/kg/day
  LOAEL: 257 mg/kg/day
Mouse [6]; [25]
  NEL: 73.3 mg/kg/day
  NOAEL: 73.3 mg/kg/day
Dog [7]
  LEL: 446 mg/kg/day
  LOAEL: 446 mg/kg/day
  NEL: 68 mg/kg/day
  NOAEL: 68 mg/kg/day
Rat [8]; systemic / pathology microscopic / liver / dilatation
  LOAEL: 35.6 mg/kg/day
Rat [8]; systemic / pathology microscopic / liver / dilatation + systemic / clinical chemistry / urea nitrogen / urea
  LEL: 35.6 mg/kg/day
Rat [8]; [26]
  NEL: 2.7 mg/kg/day
  NOAEL: 2.7 mg/kg/day
Rat [9]; [27]
  LEL: 3.24 mg/kg/day
  NEL: < 3.24 mg/kg/day
Rat [9]; systemic / pathology microscopic / kidney / lesion(s) (nos)
  LOAEL: 18.9 mg/kg/day
Rat [9]; systemic / pathology microscopic / kidney / lesion(s) (nos) + systemic / clinical chemistry / albumin / albumin + systemic / clinical …
  NOAEL: 3.14 mg/kg/day
Rat [10]; [28]
  LEL: 1000 mg/kg/day
  LOAEL: 1000 mg/kg/day
  NEL: 200 mg/kg/day
  NOAEL: 200 mg/kg/day
Rat [10]; [29]
  LEL: 1000 mg/kg/day
  LOAEL: 1000 mg/kg/day
  NEL: 200 mg/kg/day
  NOAEL: 200 mg/kg/day
Rat [11]; [30]
  LEL: 332 mg/kg/day
  LOAEL: 332 mg/kg/day
  NEL: 77.2 mg/kg/day
  NOAEL: 77.2 mg/kg/day
Rat [11]; group: parental, systemic / in life observation / body weight / body weight
  LOAEL: 326 mg/kg/day
Rat [11]; group: parental, systemic / in life observation / body weight / body weight + systemic / organ weight / heart / relative to body weight + systemic / organ …
  NOAEL: 81.3 mg/kg/day
Rat [11]; [31]
  LEL: 0.7 mg/kg/day
  NEL: < 0.7 mg/kg/day

## Cl.O=C(c1ccc(OCCN2CCCCC2)cc1)c1c(-c2ccc(O)cc2)sc2cc(O)ccc12 [Raloxifene hydrochloride]
Rat [12]; [32]
  LOAEL: > 10 mg/kg/day
  NOAEL: ≥ 10 mg/kg/day
Rat [12]; [33]
  LEL: 0.1 mg/kg/day
  NEL: < 0.1 mg/kg/day
Rabbit [13]; [34]
  LEL: 0.1 mg/kg/day
  LOAEL: > 10 mg/kg/day
  NEL: < 0.1 mg/kg/day
  NOAEL: ≥ 10 mg/kg/day
Rabbit [13]; [35]
  LEL: 10 mg/kg/day
  LOAEL: > 10 mg/kg/day
  NEL: 1 mg/kg/day
  NOAEL: ≥ 10 mg/kg/day
Rat [14]; group: developmental, developmental / developmental malformation / bone / wavy + developmental / developmental malformation / kidney / [other]
  LEL: 1 mg/kg/day
Rat [14]; [36]
  LOAEL: > 10 mg/kg/day
  NEL: 0.1 mg/kg/day
  NOAEL: ≥ 10 mg/kg/day
Rat [14]; [37]
  LOAEL: > 10 mg/kg/day
  NOAEL: ≥ 10 mg/kg/day
Rat [14]; [35]
  LEL: 0.1 mg/kg/day
  NEL: < 0.1 mg/kg/day
